Data published in patent US20070073039A1, “Peptides that inhibit viral infections” (priority 2005, published 2007).
Where two headings read alike, the source gives them in different places.

How the values were obtained:
Dengue-2 [1] = assay: Dengue-2 infection of Vero cells, Intracellular FACS Assay; type: cell-based; conditions: 20 μM
Experimental: Intracellular FACS Assay: Vero cells were seeded for 24 h pre-infection in 6-well plates. Cells were exposed to Dengue-2 in the presence of increasing concentrations of peptide (or DMSO as control). Viruses and peptide were washed away 2 h post-infection. Cells were taken for intracellular staining 3 days post-infection. Cells were stained with appropriate isotype control, Dengue Env, Dengue capsid or tubulin antibodies. Cells were analyzed by FACS.

HCV [2] = assay: Median effective concentration (EC50) by intracellular HCV RNA RT-QPCR; type: cell-based, Hepatitis C virus (JFH-1); conditions: Huh-7.5.1 cells, MOI 0.1
Experimental: (§1) To determine the median effective concentration (EC50) of peptide #1, peptide stock solution (3.6 mM in DMSO) was serially 2-fold diluted in DMSO. An aliquot of peptide from each dilution was then diluted 1:100 in complete growth medium and mixed with equal volume of virus supernatant. The virus-peptide mixture was then used to infect Huh-7.5.1 cells (MOI=0.1). After adsorption for 4 hours at 37° C., the virus-peptide inoculum was removed. The cells were washed 2 times, overlaid with 120 μL fresh growth medium and incubated at 37° C. for 3 days. Cells were lysed and subjected to RNA analysis. The HCV RNA transcript level was measured by real time RT-QPCR and normalized to cellular GAPDH levels. The inhibition of HCV infection was calculated by comparing the intracellular HCV RNA transcript between the peptide treatment and solvent control.
as §1, with “(EC50) of the L- and D-form” for “(EC50)”, “serially diluted” for “serially”, “2-fold” for “2-fold diluted”

[3] = Preliminary in vivo toxicity in mice
Experimental: As a preliminary measurement of the in vivo cytotoxicity of the peptides 1, 2 and 3 (see Table 4) a group of three mice (BALB/c mice, 7 weeks old, about 23 g) were each injected with 92 μg L-type peptide 1 ( ˜4 mg/kg) in 200 μL PBS (spun 14,000 rpm for 3 minutes before injection). In the control group, each of three mice was given 200 μL PBS containing 5% DMSO. The mice were monitored for acute toxicity during the first 3 hours after injection.
No change in appearance, activity or behavior was observed. The mice were then weighed on days 0, 3, 5, 7 and 10. Peptide-injected mice gained weight at the same rate as the controls.

MTT cytotoxicity assay = type: cell-based; conditions: human, hepatocyte cell lines, read-out: LD50 (MTT cytotoxicity)
Experimental: Peptide cytotoxicity was measured by MTT cytotoxicity assay based on the protocol provided in the ATCC MTT assay kit (Cat #30-1010K). In brief, 5000-10,000 cells were seeded per well in a 96 well plate. Following overnight growth, 100 μL fresh medium plus 20 μL of 2-fold serially diluted peptide was added. Media without peptides was added to at least 3 wells as untreated controls. The cells were then incubated for 72 hours at 37° C., 5% CO2. After this incubation, 1/10 volume of MTT solution ([…] in PBS) was added to each well, and the cells were returned to the incubator. Two hours later, the medium was removed, 150 μL DMSO was added to dissolve the purple precipitate formazan, and the plate was shaken at 150 rpm for 10 minutes. Absorbance at 570 nm less background at 670 nm is a reliable measure of […]. Cytotoxicity (LD50) of individual peptides was defined as the peptide concentration that caused 50% cell death.

[4] = Serum stability of L- and D-type peptides (10% FBS, 37° C., antiviral readout); type: in vitro ADME; conditions: within 1 hour
From the text: Peptides composed of L-amino acids are susceptible to proteolysis, which could shorten their half-life and, thus, their biological activity. To examine this possibility and to determine if specific peptide-viral protein interactions mediate antiviral activity, peptide 1 was synthesized using all D-amino acids, purified to >95% homogeneity, and its antiviral activity and serum stability were compared with a similarly pure preparation of the L-type version of peptide #1. Both L- and D-type peptides were diluted 1:100 in complete growth medium (10% FBS) and mixed with an equal volume of viral supernatant.
In addition, to compare the serum stability of the L- and D-type peptides, the diluted peptide was incubated at 37° C. for 1 hour, 2 hours and 4 hours before mixing with viral supernatant. The virus-peptide mixture was then used to infect Huh-7.5.1 cells (MOI=0.1). After adsorption for 4 hours at 37° C., the virus-peptide inoculum was removed. The cells were washed 2 times, overlaid with 120 μL fresh growth medium and incubated at 37° C. for 3 days. Cells were lysed and subjected to RNA analysis. The HCV RNA transcript level was measured by real time RT-QPCR and normalized to cellular GAPDH levels. […] Thus, in addition to low immunogenicity and possible oral bioavailability, peptides composed of D-amino acids have the potential therapeutic advantage of enhanced serum stability.

Huh-7.5.1 cells = assay: Toxicity on Huh-7.5.1 cells incubated with peptides
JFH-1 virus = assay: Interferon treatment of Huh-7.5.1 cells before JFH-1 infection; type: cell-based, Hepatitis C virus (JFH-1); conditions: 5, 50 and 500 IU/mL; Huh-7.5.1, MOI 0.3; 3 days
Experimental: The viral inoculum was removed 4 hours later and the cells were further cultured with interferon for 3 days. At that time cells were harvested, RNA was isolated and analyzed by real-time RT-PCR to determine the intracellular HCV RNA levels. Bars represent intracellular HCV RNA levels expressed as a % of the levels obtained in the control infections.
Interferon treatment. […] The inoculum was removed after 3 hours of incubation at 37° C., and fresh DMEM supplemented with the indicated doses of IFN was added to the cells. The efficiency of the infection was monitored 72 hours later by quantitative RT-PCR.

Dengue-2 [5] = assay: Dengue-2 Fluorescent Foci Assay; type: cell-based; conditions: FIG. 19; 20 μM
Experimental: Fluorescent Foci Assay: Vero cells were seeded for 24 h pre-infection in 96-well plates. Cells were exposed to Dengue-2 in the presence of increasing concentrations of peptide (or DMSO as control). Viruses and peptide were washed away 2 h post-infection. Supernatants were collected every 3 days post-infection and added to fresh Vero cells for fluorescent foci assay. Newly infected Vero cells were fixed with 4% formaldehyde after 3 days. Cells were then stained with Dengue Env antibodies followed by Alexa-fluor dye conjugated secondary antibodies. Foci were counted using a fluorescent microscope.
Fluorescent Foci Assay. Vero cells were seeded for 24 hours pre-infection in 96-well plates. Cells were exposed to Dengue-2 in the presence of increasing concentrations of peptide (or DMSO as control). Viruses and peptide were washed away 2 hours post-infection. Supernatants were collected every 3 days post-infection and added to fresh Vero cells for fluorescent foci assay. Newly infected Vero cells were fixed with 4% formaldehyde after 3 days. Cells were then stained with antibodies directed to the Dengue Envelop protein followed by Alexa-fluor dye conjugated secondary antibodies. Foci were counted using a fluorescent microscope.

Dengue-2 [6] = assay: Dengue-2 infection of Vero cells, Enzyme-linked Immunosorbent Assay; type: cell-based; conditions: for Inhibition of Dengue Infection, α-Capsid 9A7 / Inhibition of Dengue Infection, α-DEN ENV: Vero cells, 5 days
Experimental: Enzyme-linked Immunosorbent Assay. Vero cells (80,000 cells/well/ml) were seeded for 24 h pre-infection in 24-well plates. Cells were exposed to Dengue-2 (derived from Vero cells) in the presence of increasing concentration of peptide (or DMSO as control). Viruses and peptide were not removed (cells were not washed) throughout the incubation. Infection was analyzed after 5 days using ELISA that measured the amounts of Dengue-2 capsid released in the supernatant of infected Vero cells.

HCV [7] = assay: Intracellular HCV RNA by real time RT-QPCR after infection of Huh-7.5.1 cells with and without peptide; type: cell-based, Hepatitis C virus (JFH-1); conditions: working concentration 18.4-27.5 μM per peptide
Experimental: To accurately quantify the inhibitory effect of the selected peptides on HCV infection, intracellular HCV RNA was measured after infection by real time RT-QPCR with and without peptide treatment. The peptide stock solution was diluted 1:100 and mixed with equal volume of viral supernatant (propagated from day 18 virus preparation post transfection) to a final concentration approximately 20 μM. The virus with peptide or 0.5% DMSO solvent control was then used to infect Huh-7.5.1 cells at a multiplicity of infection (MOI) of 0.1. After an adsorption for 4 hours at 37° C., the inoculum was removed. The cells were washed 2 times, overlaid with 120 μL fresh growth medium and incubated at 37° C. At the indicated time points, total cellular RNA was isolated by the guanidine thiocyanate method. The HCV RNA transcript level was measured by real time RT-QPCR with the primers 5′—
normalized to cellular GAPDH levels.
To define the antiviral action of peptide #1 (SEQ ID NO:43), the antiviral activity of a series of N-terminal and C-terminal truncations of peptide 1 was analyzed using the focus reduction assay and by measuring the reduction in intracellular HCV RNA as described.

HCV [8] = assay: HCV focus reduction assay; type: cell-based, Hepatitis C virus (JFH-1); conditions: 72 h; working concentration 18.4-27.5 μM per peptide; Mock 51
In short: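 Huh-7.5.1 cells infected with 50 ffu HCV premixed with peptide (~20 μM screen; derivatives at 18, 6 and 2 μM), 4 h adsorption at 37 °C, then washed and cultured 3 days. Foci immunostained for NS5A and counted by fluorescence microscopy. Values are % of mock with 0.5% DMSO solvent.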

Dengue-2 [9] = assay: Dengue-2 infection of Vero cells, Enzyme-linked Immunosorbent Assay; type: cell-based; conditions: 1.25 μM, 5 days

CC[C@H](C)[C@H](NC(=O)[C@H](CC(=O)O)NC(=O)[C@H](CCCNC(=N)N)NC(=O)[C@H](CC(C)C)NC(=O)[C@H](Cc1c[nH]c2ccccc12)NC(=O)[C@@H](N)CO)C(=O)N[C@@H](Cc1c[nH]c2ccccc12)C(=O)N[C@@H](CC(=O)O)C(=O)N[C@@H](Cc1c[nH]c2ccccc12)C(=O)N[C@H](C(=O)N[C@@H](CS)C(=O)N[C@@H](CCC(=O)O)C(=O)N[C@H](C(=O)N[C@@H](CC(C)C)C(=O)N[C@@H](CO)C(=O)N[C@@H](CC(=O)O)C(=O)N[C@@H](Cc1ccccc1)C(=O)N[C@@H](CCCCN)C(=O)O)C(C)C)[C@@H](C)CC [Peptide 1]
% of Dead cells PI (Dengue-2 [1]; propidium iodide staining, Vero cells 3 days post-infection): 1.88% | EC50 (HCV [2]; FIG. 12B-C, 3 days, read-out: EC50 of the L- and D-forms of peptide 1): ~1000 nM | EC50 (HCV [2]; peptide with virus 4 hours, HCV RNA after 3 days, listed as peptide 1, read-out: EC50 against HCV infection): 300 nM | EC50 (HCV [2]; peptide with virus 4 hours, HCV RNA after 3 days, listed as peptide #1, read-out: EC50 against HCV infection): ~300 nM | EC50 (HCV [2]; peptide with virus 4 hours, HCV RNA after 3 days, read-out: EC50 against HCV infection): 289 nM | In vivo toxicity observation ([3]; 92 μg ( ˜4 mg/kg) in 200 μL PBS, acute toxicity first 3 hours, weight to day 10): Peptides 1, 2 and 3 are Nontoxic in C57BL/6 Mice | Weight(g) (d.0) ([3]; day 0, ˜4 mg/kg injected): 22.2 g | Weight(g) (d.3) ([3]; day 3): 22.3 g | Weight(g) (d.5) ([3]; day 5): 22.8 g | Weight(g) (d.7) ([3]; day 7): 23.1 g | Weight(g) (d.10) ([3]; day 10): 23.5 g | CC50 at 72 h (MTT cytotoxicity assay; with FBS): 26700 nM | CC50 at 72 h (MTT cytotoxicity assay; without FBS): 3800 nM | Antiviral activity lost on incubation in 10% FBS at 37° C. [4]: approximately 95% | Evidence of toxicity / cytotoxicity (Huh-7.5.1 cells): without evidence of cytotoxicity

IFNγ: human IFNγ (PBL Biomedical Lab, Piscataway, N.J.)
Inhibition of HCV infection by interferons (JFH-1 virus): efficiently inhibit HCV infection

LRDIWDWICEVLSDFK [^N-16mer]
Inhibition of Dengue viral infection by immunofluorescence assay (Dengue-2 [5]): about 90% | Inhibition of Dengue viral infection as detected by FACS (Dengue-2 [1]; FIG. 18): about 80% | Inhibition of Dengue Infection, α-Capsid 9A7 (Dengue-2 [6]; 1.25 μM): 12.82% | Inhibition of Dengue Infection, α-Capsid 9A7 (Dengue-2 [6]; 5 μM): 16.01% | Inhibition of Dengue Infection, α-DEN ENV (Dengue-2 [6]; 5 μM): 33.64% | Inhibition of Dengue Infection, α-Capsid 9A7 (Dengue-2 [6]; 20 μM): 82.2% | Inhibition of Dengue Infection, α-DEN ENV (Dengue-2 [6]; 20 μM): 74.83% | Inhibition of Dengue viral infection as detected by ELISA (Dengue-2 [6]; FIG. 17, 20 μM): about 84% | Fold Inhibition on HCV RNA (24 h) (HCV [7]; 24 h): 0.7 fold | Fold Inhibition on HCV RNA (72 h) (HCV [7]; 72 h): 0.6 fold | Focus Reduction (72 h) (HCV [8]): 125 | Inhibition of Dengue Infection, α-DEN ENV (Dengue-2 [9]): 10.24%
